Experimental data reported in PubChem BioAssay (NCI).
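The compound was tested at five concentrations on cells cultured in 96-well plates, with a 48-hour exposure period. GI50 marks 50% less growth. TGI: total growth inhibition.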

Experiments:
Assay in all cases: DTP human tumour cell line panel, 48 h
A549 NSCLC = tested on: A549 NSCLC
SF-295 CNS = tested on: SF-295 CNS
MDA-MB-435 = tested on: MDA-MB-435
PC-3 prostate = tested on: PC-3 prostate
HOP-92 NSCLC = tested on: HOP-92 NSCLC
SNB-75 CNS = tested on: SNB-75 CNS
SK-MEL-2 melanoma = tested on: SK-MEL-2 melanoma
M14 melanoma = tested on: M14 melanoma
SK-MEL-28 melanoma = tested on: SK-MEL-28 melanoma
SNB-19 CNS = tested on: SNB-19 CNS

| Structure (SMILES) | TGI (A549 NSCLC) [µM] | TGI (SF-295 CNS) [µM] | TGI (MDA-MB-435) [µM] | TGI (PC-3 prostate) [µM] | TGI (HOP-92 NSCLC) [µM] | TGI (SNB-75 CNS) [µM] | TGI (SK-MEL-2 melanoma) [µM] | TGI (M14 melanoma) [µM] | TGI (SK-MEL-28 melanoma) [µM] | TGI (SNB-19 CNS) [µM] | GI50 (SF-295 CNS) [µM] | GI50 (MDA-MB-435) [µM] | GI50 (PC-3 prostate) [µM] | GI50 (HOP-92 NSCLC) [µM] | GI50 (SNB-75 CNS) [µM] | GI50 (M14 melanoma) [µM] | GI50 (SK-MEL-28 melanoma) [µM] | GI50 (SNB-19 CNS) [µM] | GI50 (A549 NSCLC) [µM] | GI50 (SK-MEL-2 melanoma) [µM] |
| --- | --- | --- | --- | --- | --- | --- | --- | --- | --- | --- | --- | --- | --- | --- | --- | --- | --- | --- | --- | --- |
| CCOP(=O)(OCC)C(Cc1c[nH]c2ccccc12)C(=O)O (centres undefined) | > 100 | > 100 | > 100 | > 100 | > 100 | > 100 | > 100 | > 100 | > 100 | > 100 |  |  |  |  |  |  |  |  |  |  |
| Fc1ccc(C2CC(c3cccc(Nc4ccncc4)c3)=NN2c2ccccc2)cc1 (centres undefined) |  | 3.16 | 3.14 | 3.18 | 2.73 | 2.87 |  | 3.71 | 3.35 | 3.04 | 1.74 | 1.63 | 1.58 | 1.33 | 1.29 | 1.87 | 1.76 | 1.61 |  |  |
| CC(O)C1(O)C(O)CC(OC2c3cc4c(c(O)c3[C@@H]3C[C@@]2(C)OC32C=c3cc[nH]c3=N2)C(=O)c2cccc(O)c2C4=O)OC1C (some centres undefined) | 4.4 | 5.73 | 3.14 | 4.86 | 7.44 | 8 | 3.11 | 2.73 | 3.78 | 11.3 |  |  |  |  |  |  |  |  |  |  |
| CC(C)=NC(C(=O)O)C(C)(C)S (centres undefined) | > 100 | > 100 | > 100 | > 100 | > 100 | > 100 | > 100 | > 100 | > 100 | > 100 |  |  |  |  |  |  |  |  |  |  |
| Cc1ccc(S(=O)(=O)NCCCSCCN)cc1 | > 100 | > 100 | > 100 | > 100 | > 100 | > 100 |  | > 100 | > 100 | > 100 |  |  |  |  |  |  |  |  |  |  |
| C[n+]1c(-c2ccc(/C=N\Nc3ccnc(N/N=C/c4ccc(-c5cn6ccsc6[n+]5C)cc4)n3)cc2)cn2ccsc21 | > 100 |  | 6.94 | > 100 | > 100 | 92.1 |  | 30.4 |  | > 100 |  |  |  |  |  |  |  |  |  |  |
| Nc1nc(N)c(N=Nc2ccccc2)c(=O)[nH]1 | > 100 | > 100 |  |  | > 100 | 23.7 | > 100 | > 100 | 87.7 | > 100 |  |  |  |  |  |  |  |  |  |  |
| OCC1NC(CO)C(O)C1O (centres undefined) |  | > 100 | > 100 | > 100 | > 100 | > 100 | > 100 | > 100 | > 100 | > 100 |  |  |  |  |  |  |  |  |  |  |
| Nc1ccc(C2(c3ccc(N)cc3)C3CC4CC(C3)CC2C4)cc1 |  | 20.3 | 31.5 | 29.3 | 28.5 |  | 34.8 | 29.9 | > 100 | 33.3 |  |  |  |  |  |  |  |  |  |  |
| CC(=O)OC/C=C\Cn1ncc(=O)[nH]c1=O | 58.9 |  | 39.3 | 36 | 30.6 | 33.9 | 40.2 | 46.8 | 50.2 | > 100 |  |  |  |  |  |  |  |  |  |  |
| O=C(N[C@H](CO)[C@H](O)c1ccc([N+](=O)[O-])cc1)C(Cl)Cl | > 100 | > 100 | > 100 | > 100 | > 100 | > 100 | > 100 | > 100 | > 100 | > 100 |  |  |  |  |  |  |  |  |  |  |
| C=C(CN(C)C)C(=O)c1ccccc1 | 53 | 47.4 | 27.3 | 30.6 | 5.79 | 39.7 | 32.9 | 7.54 | 34.8 | 53.1 |  |  |  |  |  |  |  |  |  |  |
| COc1ccc(/C=C/c2cc(O)cc(OC3OC(CO)C(O)C(O)C3O)c2)cc1O (centres undefined) | > 100 | > 100 | > 100 | > 100 | > 100 | > 100 | > 100 | > 100 | > 100 | > 100 |  |  |  |  |  |  |  |  |  |  |
| COc1ncnc2c(Cl)c(C(O)c3ccccc3)c(Cl)cc12 (centres undefined) | > 100 | 68.2 | 21.3 | > 100 | 65.4 | 97.8 | > 100 | 89.9 | > 100 | 79.9 |  |  |  |  |  |  |  |  |  |  |
| COc1ccc(CCn2ccc(C)n2)c(OC)c1 | > 100 | > 100 | > 100 | > 100 |  | > 100 |  | > 100 | > 100 | > 100 |  |  |  |  |  |  |  |  |  |  |
| O=S1(=O)C[C@H](NCc2ccccc2)[C@H](NCc2ccccc2)C1 | > 100 | > 100 | > 100 | > 100 | > 100 | > 100 | > 100 | > 100 | > 100 | > 100 |  |  |  |  |  |  |  |  |  |  |
| CC(C)N(CCNc1nc(C(Cl)(Cl)Cl)nc2cc(Cl)ccc12)C(C)C | 3.15 | 3.66 | 3.47 | 2.73 | 3.17 | 3.84 | 3.63 | 3.19 | 3.38 | 4.78 | 1.73 | 1.71 | 1.15 | 1.01 | 1.84 | 1.58 | 1.8 | 1.9 | 1.67 | 1.76 |
